Measured values reported in patent publication US7223755B2, “Hydroxymorpholinone derivative and medicinal use thereof” (Senju Pharmaceutical Co., Ltd., priority 2002, dated 2007).

What was measured:
[1] = system: T1, μ-calpain (derived from human erythrocyte); assay: μ-calpain inhibitory activity (casein substrate, Coomassie brilliant blue); type: biochemical; details: 0.5 mg/mL casein, 30° C. for 60 min; read-out: 50% enzyme inhibitory concentration [IC50 (μM)] μ-calpain
T1 construct: μ-calpain (derived from human erythrocyte, manufactured by Cosmo Bio Co., Ltd.); purchased Cosmo Bio Co., Ltd; host or cells: human erythrocyte (natural source)
Method: The μ-calpain and m-calpain inhibitory activities were determined according to the method described in a reference [Anal. Biochem. vol. 208, 387-392 (1993)]. To be specific, a reaction mixture (200 μL) containing 0.5 mg/mL casein, 50 mM Tris-HCl buffer (pH 7.4), 20 mM dithiothreitol and 0.03 enzyme unit of μ-calpain (derived from human erythrocyte, manufactured by Cosmo Bio Co., Ltd.) or m-calpain (derived from pig kidney, manufactured by Cosmo Bio Co., Ltd.), dimethyl sulfoxide solution (2.5 μL) containing various concentrations of a test drug and 20 mM aqueous calcium chloride solution (50 μL) were added to a 96 well plate. After reaction at 30° C. for 60 min, the reaction mixture (100 μL) was transferred to a different 96 well plate, and purified water (50 μL) and 50% Coomassie brilliant blue solution (100 μL) were added. The plate was left standing at room temperature for 15 min and absorbance at 595 nm was measured. Using a value, measured after treating in the same manner without a test drug, as a control and a value, obtained by adding 1 mM EDTA instead of 20 mM aqueous calcium chloride solution, as a blank value, an inhibitory rate was calculated from the following formula and the amount (IC50) necessary for 50% inhibition was determined. Inhibitory rate (%)={1−(measured value−blank value)/(control value−blank value)}×100 Test Results 1

| Molecule | IC50 [1] [µM] | melting point [°C] |
| --- | --- | --- |
| CC(C)C[C@@H]1OC(O)[C@H](Cc2ccccc2)NC1=O (stereo partly drawn) [Compound 1, (2S,5S)-5-benzyl-6-hydroxy-2-(2-methylpropyl)-3-morpholinone] | 0.7 | – |
| CC(C)C[C@@H]1OC(O)[C@H](CCc2ccccc2)NC1=O (stereo partly drawn) [Compound 2, (2S,5S)-6-hydroxy-2-(2-methylpropyl)-5-(2-phenylethyl)-3-morpholinone] | 0.51 | 94.1 to 95.8 |
| CC(C)C[C@@H]1OC(O)[C@H](Cc2ccc3ccccc3c2)NC1=O (stereo partly drawn) [Compound 3, (2S,5S)-6-hydroxy-2-(2-methylpropyl)-5-(2-naphthylmethyl)-3-morpholinone] | 0.49 | 86.5 to 88.5 |
| CC(C)C[C@@H]1OC(O)[C@@H](Cc2ccccc2)NC1=O (stereo partly drawn) [Compound 4, (2S,5R)-5-benzyl-6-hydroxy-2-(2-methylpropyl)-3-morpholinone] | 5.9 | 130.9 to 131.8 |
| CC(C)[C@@H]1OC(O)[C@H](Cc2ccccc2)NC1=O (stereo partly drawn) [Compound 5, (2S,5S)-5-benzyl-6-hydroxy-2-(1-methylethyl)-3-morpholinone] | 2.3 | – |
| CC(C)[C@@H]1OC(O)[C@H](CCc2ccccc2)NC1=O (stereo partly drawn) [Compound 6, (2S,5S)-6-hydroxy-2-(1-methylethyl)-5-(2-phenylethyl)-3-morpholinone] | 3.5 | – |
| O=C1N[C@@H](Cc2ccccc2)C(O)O[C@H]1Cc1ccccc1 (stereo partly drawn) [Compound 7, (2S,5S)-2,5-dibenzyl-6-hydroxy-3-morpholinone] | 17 | 165.5 to 166 |
| CC(C)C[C@@H]1OC(O)[C@H](Cc2ccc(O)cc2)NC1=O (stereo partly drawn) [Compound 8, (2S,5S)-6-hydroxy-5-((4-hydroxyphenyl)methyl)-2-(2-methylpropyl)-3-morpholinone] | 2.5 | – |
| COc1ccc(C[C@@H]2NC(=O)[C@H](CC(C)C)OC2O)cc1 (stereo partly drawn) [Compound 9, (2S,5S)-6-hydroxy-5-((4-methoxyphenyl)methyl)-2-(2-methylpropyl)-3-morpholinone] | 0.68 | – |
| CCCCOc1ccc(C[C@@H]2NC(=O)[C@H](CC(C)C)OC2O)cc1 (stereo partly drawn) [Compound 10, (2S,5S)-5-((4-butoxyphenyl)methyl)-6-hydroxy-2-(2-methylpropyl)-3-morpholinone] | 0.52 | – |
| CC(C)C[C@@H]1OC(O)[C@H](Cc2ccc(OCC3CCCCC3)cc2)NC1=O (stereo partly drawn) [Compound 11, (2S,5S)-5-((4-(cyclohexylmethoxy)phenyl)methyl)-6-hydroxy-2-(2-methylpropyl)-3-morpholinone] | 0.45 | – |
| CC(C)C[C@@H]1OC(O)[C@H](Cc2ccccc2F)NC1=O (stereo partly drawn) [Compound 12, (2S,5S)-5-((2-fluorophenyl)methyl)-6-hydroxy-2-(2-methylpropyl)-3-morpholinone] | 2.1 | 83.9 to 87.9 |
| CC(C)C[C@@H]1OC(O)[C@H](Cc2ccccc2Cl)NC1=O (stereo partly drawn) [Compound 13, (2S,5S)-5-((2-chlorophenyl)methyl)-6-hydroxy-2-(2-methylpropyl)-3-morpholinone] | 0.93 | – |
| CC(C)C[C@@H]1OC(O)[C@H](COCc2ccccc2)NC1=O (stereo partly drawn) [Compound 14, (2S,5S)-5-benzyloxymethyl-6-hydroxy-2-(2-methylpropyl)-3-morpholinone] | 0.82 | – |
| CC(C)C[C@@H]1OC(O)[C@H](CCCCNC(=O)c2ccccc2)NC1=O (stereo partly drawn) [Compound 16, (2S,5S)-5-(4-(benzoylamino)butyl)-6-hydroxy-2-(2-methylpropyl)-3-morpholinone] | 1.1 | 128.4 to 129 |
| (2S,5S)-5-((4-biphenyl)methyl)-6-hydroxy-2-(2-methylpropyl)-3-morpholinone [Compound 15] | 0.25 | – |
